Consider ten molecules from patent EP4803094A2, “GLP-1/GIP DUAL, GLP-1/GCG DUAL AND GLP-1/GIP/GCG TRIPLE RECEPTOR AGONISTS” (Sun Pharmaceutical Industries Limited, priority 2023, dated 2024).

Marks after values point to notes of the source that are not given here.

Assay [1] relates to Rats. Description: Oral Glucose Tolerance Test (OGTT) in rats, single injection (blood glucose AUC, body weight, food consumption). The class given is in vivo. As to conditions: for Food Consumption (g) / Body weight change (%): 30 nM/kg s.c.; for Food Consumption (g): 0-12 hr; for Food Consumption (g) / Body weight change (%) / Blood Glucose AUC(0-120min) Mean: mean (n=4); for Blood Glucose AUC(0-120min) Mean: OGTT 2 g/kg glucose orally, 24 hr post subcutaneous injection of 30 nM/kg; for % Change in Blood glucose AUC(0-120min) vs placebo control: OGTT 24 hr post subcutaneous injection of 30 nM/kg. The protocol:
Animals were divided into 6 groups (n=4/group): a placebo control group, Compound 17, (30 nM/kg), Compound 18 (30 nM/kg), Compound 19 (30 nM/kg), Compound 20 (30 nM/kg), and Retatrutide (30 nM/kg). Animals were fasted for 12 hours before initiation of OGTT. After 24 hours of subcutaneous injection of tests or Retatrutide, blood glucose was measured with blood glucometer (time 0 measurement). All the animals were given 2 g/kg of glucose solution orally. Blood glucose was measured at 10, 20, 40, 60, 90, and 120 min following glucose challenge. Body weight and food consumption were recorded at 12 hr, 48 hr and 72 hr.

Assay [2] has as its system Rats. The description is as above. The assay is classed as in vivo. The settings on record: 30 nM/kg s.c., mean (n=4); for Body weight change (%): 24 hr.
A further assay addresses GLP-1R (UniProt P43220 24-463, limits assumed). Description: cell-based or functional assay.
In another assay the target is GCGR (UniProt P47871 26-477, limits assumed). Description: cell-based or functional assay.
Chain of GCGR (P47871 26-477 limits assumed): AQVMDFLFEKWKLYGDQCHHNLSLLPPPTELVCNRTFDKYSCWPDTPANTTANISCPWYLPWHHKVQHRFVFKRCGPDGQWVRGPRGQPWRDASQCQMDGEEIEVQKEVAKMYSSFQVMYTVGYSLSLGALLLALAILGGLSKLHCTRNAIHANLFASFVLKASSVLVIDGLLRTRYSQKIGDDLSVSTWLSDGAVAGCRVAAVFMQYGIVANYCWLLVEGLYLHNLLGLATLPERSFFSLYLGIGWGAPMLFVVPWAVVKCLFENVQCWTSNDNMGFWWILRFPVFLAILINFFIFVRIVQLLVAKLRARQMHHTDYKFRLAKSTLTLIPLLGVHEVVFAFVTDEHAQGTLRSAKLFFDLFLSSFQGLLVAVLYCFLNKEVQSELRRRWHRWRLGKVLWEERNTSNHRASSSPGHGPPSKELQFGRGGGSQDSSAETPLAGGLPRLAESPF
The next assay addresses T1, GIPR (UniProt P48546 22-466, limits assumed).
T1 sequence (looked up): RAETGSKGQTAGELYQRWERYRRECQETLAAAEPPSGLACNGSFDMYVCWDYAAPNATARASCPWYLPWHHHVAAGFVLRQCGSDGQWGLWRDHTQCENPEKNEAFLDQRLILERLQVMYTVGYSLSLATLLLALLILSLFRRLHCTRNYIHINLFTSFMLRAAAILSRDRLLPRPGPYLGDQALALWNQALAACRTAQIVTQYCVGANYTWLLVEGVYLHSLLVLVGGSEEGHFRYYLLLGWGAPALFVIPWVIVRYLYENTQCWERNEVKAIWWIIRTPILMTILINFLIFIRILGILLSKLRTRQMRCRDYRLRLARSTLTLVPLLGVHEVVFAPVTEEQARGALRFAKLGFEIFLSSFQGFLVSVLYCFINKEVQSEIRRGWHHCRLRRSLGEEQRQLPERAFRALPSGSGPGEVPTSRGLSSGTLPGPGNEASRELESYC
Description: cell-based or functional assay.

With `CC[C@H](C)[C@H](NC(=O)[C@H](Cc1ccccc1)NC(=O)[C@H](C)NC(=O)C(C)(C)NC(=O)[C@H](CCC(N)=O)NC(=O)[C@H](C)NC(=O)[C@H](CCCCNC(=O)COCCOCCNC(=O)NCCCCNC(=O)CC[C@H](NC(=O)CCCCCCCCCCCCCCCCCCC(=O)O)C(=O)O)NC(=O)[C@H](CCCCN)NC(=O)[C@H](CC(=O)O)NC(=O)[C@H](CC(C)C)NC(=O)[C@](C)(CC(C)C)NC(=O)[C@@H](NC(=O)[C@H](CO)NC(=O)[C@H](Cc1ccc(O)cc1)NC(=O)[C@H](CC(=O)O)NC(=O)[C@H](CO)NC(=O)[C@@H](NC(=O)[C@H](Cc1ccccc1)NC(=O)[C@@H](NC(=O)CNC(=O)[C@H](CCC(N)=O)NC(=O)C(C)(C)NC(=O)[C@@H](N)Cc1ccc(O)cc1)[C@@H](C)O)[C@@H](C)O)[C@@H](C)CC)C(=O)N[C@@H](CCC(=O)O)C(=O)N[C@@H](Cc1ccc(O)cc1)C(=O)N[C@@H](CC(C)C)C(=O)N[C@@H](CC(C)C)C(=O)N[C@@H](CCC(=O)O)C(=O)NCC(=O)NCC(=O)N1CCC[C@H]1C(=O)N[C@@H](CO)C(=O)N[C@@H](CO)C(=O)NCC(=O)N[C@@H](C)C(=O)N1CCC[C@H]1C(=O)N1CCC[C@H]1C(=O)N1CCC[C@H]1C(=O)N[C@@H](CO)C(N)=O` [Compound 20], the “Food Consumption (g)” value in the assay on Rats [1] is 1.6*** g; with Rats [2] (24-48 hr) it was 12.8*** g; in the assay on Rats [2] (24-72 hr), 33.1*** g. For the same molecule, the “Body weight change (%)” value is reported as -4.6*** % in the assay on Rats [1] (48 hr), -2.7*** % in the assay on Rats [1] (72 hr) and -6.0*** % with Rats [2]. Further, the “Blood Glucose AUC(0-120min) Mean” value in the assay on Rats [1] is given as 4472.5***. Besides, the “% Change in Blood glucose AUC(0-120min) vs placebo control” value (“% Change in Blood glucose AUC(0-120min)” for short) in the assay on Rats [1] is reported as -53.76%.

Turning to `CCC[C@H](NC(=O)[C@@H](NC(=O)[C@H](CO)NC(=O)[C@H](Cc1ccc(O)cc1)NC(=O)[C@H](CC(=O)O)NC(=O)[C@H](CO)NC(=O)[C@@H](NC(=O)[C@H](Cc1ccccc1)NC(=O)[C@@H](NC(=O)CNC(=O)[C@H](CCC(N)=O)NC(=O)C(C)(C)NC(=O)[C@@H](N)Cc1ccc(O)cc1)[C@@H](C)O)[C@@H](C)O)[C@@H](C)CC)C(=O)N[C@@H](CC(C)C)C(=O)N[C@@H](CC(=O)O)C(=O)N[C@@H](CCCCN)C(=O)N[C@@H](CCCCNC(=O)COCCOCCNC(=O)C(C)(C)NC(=O)CC[C@H](NC(=O)CCCCCCCCCCCCCCCCCCC(=O)O)C(=O)O)C(=O)N[C@@H](C)C(=O)N[C@@H](CCC(N)=O)C(=O)NC(C)(C)C(=O)N[C@@H](C)C(=O)N[C@@H](Cc1ccccc1)C(=O)N[C@H](C(=O)N[C@@H](CCC(=O)O)C(=O)N[C@@H](Cc1ccc(O)cc1)C(=O)N[C@@H](CC(C)C)C(=O)N[C@@H](CC(C)C)C(=O)N[C@@H](CCC(=O)O)C(=O)NCC(=O)NCC(=O)N1CCC[C@H]1C(=O)N[C@@H](CO)C(=O)N[C@@H](CO)C(=O)NCC(=O)N[C@@H](C)C(=O)N1CCC[C@H]1C(=O)N1CCC[C@H]1C(=O)N1CCC[C@H]1C(=O)N[C@@H](CO)C(N)=O)[C@@H](C)CC` [Compound 17], the “Food Consumption (g)” value in the assay on Rats [1] is 1.4*** g; in the assay on Rats [2] (24-48 hr), 15.8*** g; with Rats [2] (24-72 hr), 31.3*** g. Further, the “Body weight change (%)” value is -5.0*** % in the assay on Rats [1] (48 hr), -3.3*** % with Rats [1] (72 hr) and -6.8*** % in the assay with Rats [2]. Further, in the assay with Rats [1], the “Blood Glucose AUC(0-120min) Mean” value is 4771.3***. For the same molecule, the “% Change in Blood glucose AUC(0-120min)” value in the assay on Rats [1] is recorded as -50.67%.

For the molecule `CCC[C@H](NC(=O)[C@@H](NC(=O)[C@H](CO)NC(=O)[C@H](Cc1ccc(O)cc1)NC(=O)[C@H](CC(=O)O)NC(=O)[C@H](CO)NC(=O)[C@@H](NC(=O)[C@H](Cc1ccccc1)NC(=O)[C@@H](NC(=O)CNC(=O)[C@H](CCC(N)=O)NC(=O)C(C)(C)NC(=O)[C@@H](N)Cc1ccc(O)cc1)[C@@H](C)O)[C@@H](C)O)[C@@H](C)CC)C(=O)N[C@@H](CC(C)C)C(=O)N[C@@H](CC(=O)O)C(=O)N[C@@H](CCCCN)C(=O)N[C@@H](CCCCNC(=O)COCCOCCNC(=O)COCCOCCNC(=O)CC[C@H](NC(=O)CCCCCCCCCCCCCCCCCCC(=O)O)C(=O)O)C(=O)N[C@@H](C)C(=O)N[C@@H](CCC(N)=O)C(=O)NC(C)(C)C(=O)N[C@@H](C)C(=O)N[C@@H](Cc1ccccc1)C(=O)N[C@H](C(=O)N[C@@H](CCC(=O)O)C(=O)N[C@@H](Cc1ccc(O)cc1)C(=O)N[C@@H](CC(C)C)C(=O)N[C@@H](CC(C)C)C(=O)N[C@@H](CCC(=O)O)C(=O)NCC(=O)NCC(=O)N1CCC[C@H]1C(=O)N[C@@H](CO)C(=O)N[C@@H](CO)C(=O)NCC(=O)N[C@@H](C)C(=O)N1CCC[C@H]1C(=O)N1CCC[C@H]1C(=O)N1CCC[C@H]1C(=O)N[C@@H](CO)C(N)=O)[C@@H](C)CC` [Compound 18], the “Food Consumption (g)” value in the assay on Rats [1] is recorded as 3.0*** g; with Rats [2] (24-48 hr), 5.8*** g; in the assay on Rats [2] (24-72 hr), 16.8*** g. Moreover, the “Body weight change (%)” value in the assay on Rats [1] (48 hr) is given as -4.6*** %; in the assay with Rats [1] (72 hr), -2.6*** %; in the assay with Rats [2], -6.5*** %. In the assay with Rats [1], the “Blood Glucose AUC(0-120min) Mean” value is given as 4176.3***. The “% Change in Blood glucose AUC(0-120min)” value in the assay with Rats [1] is reported as -56.82%.

B1: Compound 12 (peptide)
peptide: YXQGTFTSDYSIXLDKXAQXAFIEYLLEGGPSSGAPPPS
modifications: Aib at 2; αMethyl-Leu at 13; Lys 17 ε-amino acylated with Moiety A; Aib at 20; C-terminal amide (Rink amide resin)
Take B1: the results for the “EC50 value, cellular cAMP assay (Hit Hunter cAMP)” value (from here on “EC50 value, cellular cAMP assay”) in the assay with GLP-1R, in the assay with GCGR and in the assay with GIPR were 12000 pM, 6990 pM and 12000 pM, respectively.

B2: Compound 19 (peptide)
peptide: YXQGTFTSDYSIXLDKXAQXAFIEYLLEGGPSSGAPPPS
modifications: Aib at 2; αMethyl-Leu at 13; Lys 17 ε-amino acylated with Moiety C; Aib at 20; C-terminal amide
Consider B2, for which the “EC50 value, cellular cAMP assay” value was 11.6 pM in the assay with GLP-1R, 109 pM with GCGR and 13.8 pM in the assay with GIPR.

B3: Compound 20 (peptide)
peptide: YXQGTFTSDYSIXLDKXAQXAFIEYLLEGGPSSGAPPPS
modifications: Aib at 2; αMethyl-Leu at 13; Lys 17 ε-amino acylated with Moiety D; Aib at 20; C-terminal amide
For the molecule B3, the “EC50 value, cellular cAMP assay” value with GLP-1R worked out at 14.4 pM; in the assay with GCGR it was 140 pM; with GIPR, 18.1 pM.

B4: Compound 18 (peptide)
peptide: YXQGTFTSDYSIXLDKXAQXAFIEYLLEGGPSSGAPPPS
modifications: not fully specified; Aib at 2; norvaline at 13; Lys 17 ε-amino acylated with Moiety G; Aib at 20; C-terminal amide
With B4, the “EC50 value, cellular cAMP assay” value with GLP-1R is 17.3 pM; with GCGR, 193 pM; with GIPR it was 22.7 pM.

B5: Compound 13 (peptide)
peptide: YXQGTFTSDYSIXLDKXAQXAFIEYLLEGGPSSGAPPPS
modifications: Aib at 2; αMethyl-Leu at 13; Lys 17 ε-amino acylated with Moiety B; Aib at 20; C-terminal amide
In the case of B5, the “EC50 value, cellular cAMP assay” value in the assay with GLP-1R is more than 2400 pM; with GCGR it was more than 1800 pM; with GIPR, more than 1500 pM.

B6: Compound 17 (peptide)
peptide: YXQGTFTSDYSIXLDKXAQXAFIEYLLEGGPSSGAPPPS
modifications: Aib at 2; norvaline at 13; Lys 17 ε-amino acylated with Moiety B; Aib at 20; C-terminal amide
Consider B6, for which the “EC50 value, cellular cAMP assay” value with GLP-1R came to 8.7 pM; with GCGR it was 13.3 pM; with GIPR it was 11.5 pM.

B7: Compound 14 (peptide)
peptide: YXQGTFTSDYSIXLDKXAQXAFIEYLLEGGPSSGAPPPS
modifications: Aib at 2; norleucine at 13; Lys 17 ε-amino acylated with Moiety B; Aib at 20; C-terminal amide
For the molecule B7, the “EC50 value, cellular cAMP assay” value with GLP-1R turned out to be 8540 pM; with GCGR it was 20900 pM; with GIPR, 24000 pM.
